{
  "source": "a compilation of properties of binary mixtures (doi:10.1016/j.molliq.2014.05.027)",
  "experiment": "xn = mol fraction of the nth substance listed",
  "details": "101 kPa",
  "data": [
    {"smiles": "O", "note": "+ CC(=O)[O-].Cn1cc[nH+]c1", "values": [
      {"measurement": "viscosity", "setting": "293.15 K, x1 = 1", "value": 1.002, "unit": "mPa·s"},
      {"measurement": "viscosity", "setting": "298.15 K, x1 = 1", "value": 0.89, "unit": "mPa·s"},
      {"measurement": "viscosity", "setting": "303.15 K, x1 = 1", "value": 0.797, "unit": "mPa·s"},
      {"measurement": "viscosity", "setting": "313.15 K, x1 = 1", "value": 0.651, "unit": "mPa·s"}
    ]},
    {"smiles": "CC(=O)[O-].Cn1cc[nH+]c1", "note": "+ O", "values": [
      {"measurement": "viscosity", "setting": "293.15 K, x2 = 0", "value": 8.2, "unit": "mPa·s"},
      {"measurement": "electrical conductivity", "setting": "298.15 K, x1 = 0.002", "value": 0.522, "unit": "S/m"},
      {"measurement": "electrical conductivity", "setting": "298.15 K, x1 = 0.0071", "value": 1.51, "unit": "S/m"},
      {"measurement": "electrical conductivity", "setting": "298.15 K, x1 = 0.01", "value": 1.92, "unit": "S/m"},
      {"measurement": "electrical conductivity", "setting": "298.15 K, x2 = 0", "value": 0.371, "unit": "S/m"},
      {"measurement": "viscosity", "setting": "298.15 K, x2 = 0", "value": 6.93, "unit": "mPa·s"},
      {"measurement": "electrical conductivity", "setting": "298.15 K, x2 = 0.1092", "value": 0.433, "unit": "S/m"},
      {"measurement": "electrical conductivity", "setting": "298.15 K, x2 = 0.2563", "value": 0.553, "unit": "S/m"},
      {"measurement": "electrical conductivity", "setting": "298.15 K, x2 = 0.5026", "value": 0.858, "unit": "S/m"},
      {"measurement": "electrical conductivity", "setting": "298.15 K, x2 = 0.6515", "value": 1.21, "unit": "S/m"},
      {"measurement": "electrical conductivity", "setting": "298.15 K, x2 = 0.8065", "value": 2, "unit": "S/m"},
      {"measurement": "electrical conductivity", "setting": "298.15 K, x2 = 0.8514", "value": 2.52, "unit": "S/m"},
      {"measurement": "electrical conductivity", "setting": "298.15 K, x2 = 0.9001", "value": 3.27, "unit": "S/m"},
      {"measurement": "electrical conductivity", "setting": "298.15 K, x2 = 0.9252", "value": 3.73, "unit": "S/m"},
      {"measurement": "viscosity", "setting": "303.15 K, x2 = 0.7993", "value": 5.76, "unit": "mPa·s"},
      {"measurement": "viscosity", "setting": "308.15 K, x2 = 0", "value": 5.07, "unit": "mPa·s"}
    ]}
  ]
}
